According to article PMC4357467, “A Mouse Model of L-2-Hydroxyglutaric Aciduria, a Disorder of Metabolite Repair” (PLoS ONE, 2015):

Columns and labels:
[1] = target: T1, Lysine-α-ketoglutarate reductase (bifunctional lysine-α-ketoglutarate reductase/saccharopine dehydrogenase) (Mus musculus, UniProt Q99K67); assay: spectrophotometric enzyme assay (NADPH), partially purified native liver enzyme; assay type: biochemical
T1 construct: gene Aass; native bifunctional enzyme, partially purified from liver (15 000 x g supernatant, Blue Trisacryl column)
T1 sequence (Q99K67 28-926): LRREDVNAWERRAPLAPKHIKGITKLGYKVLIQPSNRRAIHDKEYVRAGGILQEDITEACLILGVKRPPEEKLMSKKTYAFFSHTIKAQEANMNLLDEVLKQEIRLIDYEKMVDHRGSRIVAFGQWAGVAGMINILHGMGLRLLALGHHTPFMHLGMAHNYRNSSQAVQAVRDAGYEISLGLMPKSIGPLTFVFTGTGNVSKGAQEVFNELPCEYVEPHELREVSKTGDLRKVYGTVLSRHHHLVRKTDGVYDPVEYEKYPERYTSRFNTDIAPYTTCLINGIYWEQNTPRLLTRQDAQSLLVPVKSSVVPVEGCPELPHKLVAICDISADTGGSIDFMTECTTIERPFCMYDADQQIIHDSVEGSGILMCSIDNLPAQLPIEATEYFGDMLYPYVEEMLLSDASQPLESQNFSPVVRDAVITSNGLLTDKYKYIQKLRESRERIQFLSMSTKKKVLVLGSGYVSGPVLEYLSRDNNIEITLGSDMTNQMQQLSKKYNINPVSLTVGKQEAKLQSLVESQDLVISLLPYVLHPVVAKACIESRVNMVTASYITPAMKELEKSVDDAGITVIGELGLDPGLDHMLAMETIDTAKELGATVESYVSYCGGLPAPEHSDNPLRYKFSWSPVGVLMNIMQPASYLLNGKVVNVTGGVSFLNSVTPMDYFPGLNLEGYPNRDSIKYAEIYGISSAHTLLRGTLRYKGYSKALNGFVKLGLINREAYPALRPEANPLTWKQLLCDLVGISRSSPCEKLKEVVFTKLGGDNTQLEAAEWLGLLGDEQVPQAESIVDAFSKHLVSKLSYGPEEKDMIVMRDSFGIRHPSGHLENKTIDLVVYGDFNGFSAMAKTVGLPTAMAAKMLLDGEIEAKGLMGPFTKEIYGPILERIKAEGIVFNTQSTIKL

[2] = target: T1, Lysine-α-ketoglutarate reductase (bifunctional lysine-α-ketoglutarate reductase/saccharopine dehydrogenase); assay: as above; assay type: biochemical; settings: 25 mM Hepes pH 8.0, 30°C, 0.15 mM NADPH, 1 mM dithiothreitol, 10 mM lysine, 2 mM α-ketoglutarate

| SMILES | Ki [1] [µM] | spectrophotometric enzyme assay (NADPH), partially purified native liver enzyme [2] |
| --- | --- | --- |
| O=C(O)CC[C@H](O)C(=O)O [L-2-hydroxyglutarate] | 700 |  |
| O=C(O)CC[C@@H](O)C(=O)O [D-2-hydroxyglutarate] |  | almost no inhibition was observed with D-2-hydroxyglutarate |
